Test results taken from ChEMBL document CHEMBL1145011 (J Med Chem, 2003).

Legend:
in vivo [1] = conditions: rat
in vivo [2] = conditions: rat, po, 10 uM/kg
in vivo [3] = conditions: rat, po, 10 umol/kg
in vivo [4] = conditions: rat, plasma, iv, 10 umol/kg
in vivo [5] = conditions: rat, iv, 10 umol/kg
in vivo [6] = conditions: rat, po, 10 umol/kg; remark: listed apart in the source
[7] = Tested for plasma clearance at intravenous dose of 25 umol/kg in monkey; format: ADME, organism-based
[8] = Percent oral bioavailability at dose of 25 umol/kg in monkey; format: ADME, organism-based; conditions: primates, in vivo
[9] = Area under curve at oral dose of 25 umol/kg in monkey; format: ADME; conditions: simiiformes, in vivo
in vivo [10] = conditions: rat, plasma, iv, 10 umol/kg; remark: listed apart in the source
[11] = Half life in monkey at oral dose of 25 umol/kg; format: ADME, organism-based; conditions: simiiformes, in vivo
[12] = Area under curve at intravenous dose of 25 umol/kg in monkey; format: ADME; conditions: simiiformes, in vivo
[13] = Half life in monkey at intravenous dose of 25 umol/kg; format: ADME, organism-based; conditions: simiiformes, in vivo
[14] = Tested for volume distribution at intravenous dose of 25 umol/kg in monkey; format: ADME, organism-based; conditions: simiiformes, in vivo, read-out: Vss
[15] = T max value at oral dose of 25 umol/kg in monkey; format: ADME, organism-based; conditions: simiiformes, in vivo
in vivo [16] = conditions: rat, iv, 10 umol/kg; remark: listed apart in the source
[17] = Cmax value at oral dose of 25 umol/kg in monkey; format: ADME, organism-based; parameters: dose 25 umol/kg, route oral; conditions: simiiformes, in vivo
in vitro = conditions: human, Caco-2

Cc1onc(NS(=O)(=O)c2ccccc2-c2ccc(-c3ncco3)cc2CN2CCC(C)(C)C2=O)c1C
half-life (in vivo [1]): 4.7 h
bioavailability (in vivo [2]): 78%
Tmax (in vivo [3]): 0.6 h
clearance (in vivo [4]): 9.3 mL/min/kg
Vd (in vivo [5]): 2.3 L/kg
Cmax (in vivo [6]): 7.7 µM

Cc1onc(NS(=O)(=O)c2ccccc2-c2ccc(-c3ncco3)cc2N(C)C(=O)CC(C)(C)C)c1C
clearance [7]: 2.7 mL/min/kg
half-life (in vivo [1]): 3.4 h
bioavailability [8]: 26%
bioavailability (in vivo [2]): 100%
AUC [9]: 41.5 µM·h
clearance (in vivo [10]): 5.4 mL/min/kg
Tmax (in vivo [3]): 0.4 h
half-life [11]: 17 h
AUC [12]: 161 µM·h
half-life [13]: 14 h
Vd [14]: 0.25 L/kg
Cmax (in vivo [6]): 28 µM
Tmax [15]: 1.2 h
Vd (in vivo [16]): 1.1 L/kg
Cmax [17]: 16.1 µM

Cc1noc(NS(=O)(=O)c2ccccc2-c2ccc(-c3ncco3)cc2COCC(C)C)c1C
Papp (in vitro): < 3 ×10⁻⁶ cm/s

Cc1noc(NS(=O)(=O)c2ccccc2-c2ccc(-c3ncco3)cc2/C=C\c2ccccc2)c1C
Papp (in vitro): 8.9 ×10⁻⁶ cm/s

Cc1noc(NS(=O)(=O)c2ccccc2-c2ccc(-c3ncco3)cc2Cc2ncco2)c1C
Papp (in vitro): 14.8 ×10⁻⁶ cm/s
